# Data taken from ChEMBL document CHEMBL4177683, “New terpenoids and thiophene derivatives from the aerial parts of Artemisia sieversiana” (Bioorg Med Chem Lett, 2017).
# Test system: BV-2
# Assay: Antiinflammatory activity in mouse BV2 cells assessed as inhibition of LPS-stimulated nitric oxide production by Griess reagent based spectrophotometric analysis
# Format: functional, cell-based
row,IC50,SMILES
1,> 100 µM,CC(=O)O[C@H]1CC(C)=C2C(=O)C=C(C)[C@@H]2[C@H]2OC(=O)[C@@H](C)[C@@H]21
2,27.9 µM,C/C1=C\C[C@H](O)/C(C)=C/[C@H]2OC(=O)[C@H](C)[C@@H]2CC1
3,11.9 µM,CC(=O)O[C@H]([C@@H]1C=C(C)C(=O)O1)[C@@H](C)C1[C@@H]2[C@@]3(O)O[C@@]4(CC[C@]12C)C(O)[C@]12OC(=O)C[C@H]1OC(C)(C)[C@@H]2CC[C@H]4C3=O (stereo partly drawn)
4,> 100 µM,C/C=C(/C)C(=O)O[C@@H]1C[C@H]2C(C)(C)O[C@@H]3CC(=O)O[C@@]32C[C@@]2(O)C[C@H](O)[C@]34O[C@@]5(C=C(C)C(=O)O5)C[C@@H](C)[C@H]3C[C@@H]3O[C@@]34[C@H]12
5,6.5 µM,CC(=O)O[C@H]1C[C@]2(C)O[C@@]23C(=O)C=C(C)C3[C@H]2OC(=O)[C@H](C)[C@H]12 (stereo partly drawn)
6,10.1 µM,CC(=O)O[C@H]([C@@H]1CC(C)C(=O)O1)[C@@H](C)C1[C@@H]2[C@@]3(O)O[C@@]4(CC[C@]12C)C(O)[C@]12OC(=O)C[C@H]1OC(C)(C)[C@@H]2CC[C@H]4C3=O (stereo partly drawn)
7,> 100 µM,CC1=CC(=O)[C@]23O[C@@]2(C)C[C@H](O)[C@@H]2[C@H](OC(=O)[C@@H]2C)[C@@H]13

# Further lines, the molecule ahead of its results:
row,SMILES,IC50
1,CC#Cc1cc(O)c(C(C)=O)s1,98.5 µM
2,CC1=CC[C@@H]([C@](C)(O)[C@H]2CC[C@@]3(C)[C@@H]4C[C@@H](O)[C@H]5C(C)(C)OC(=O)C=C[C@@]56C[C@@]46CC[C@]23C)OC1=O,> 100 µM
3,C=C1CC[C@@H](C(C)C)/C=C/C(=O)CC[C@H]1O,> 100 µM
4,CC1=C(CC[C@@H](C)O)C(C)(C)C[C@H](O)C1,> 100 µM
5,CC#Cc1ccc(C(=O)O)s1,79.5 µM
6,O=c1c(O)c(-c2ccc(O)c(O)c2)oc2cc(O)cc(O)c12 [QUERCETIN],16.3 µM
